According to PMC9078569, “Understanding the inhibitory mechanism of tea polyphenols against tyrosinase using fluorescence spectroscopy, cyclic voltammetry, oximetry, and molecular simulations” (RSC Advances, 2018):
Where two headings read alike, the source gives them in different places.

How the values were obtained:
[1] = target: T1, Tyrosinase (TYR, EC1.14.18.1) from mushroom (Agaricus bisporus, UniProt C7FF04); experiment: Inhibition of diphenolase activity of tyrosinase with L-DOPA as substrate (spectroscopy at 475 nm; HPLC for catechin); assay type: biochemical
T1 construct: purchased Sigma-Aldrich
Method: The inhibitory activity of the TPs, i.e., catechin, ECG, and EGCG, and a positive control, i.e., KA, against diphenolase activity of tyrosinase was measured with L-DOPA as a substrate using the reported spectroscopy method.[13,24] Assays were conducted in a 96-well micro-plate and a spectrophotometer reader was used to determine the absorbance.[25] Briefly, 6 μL of 1000 unit per mL tyrosinase solution was combined with potassium phosphate buffer (pH 6.5) and 1 mM KA or TPs (both dissolved in potassium phosphate buffer, pH 6.5). After pre-incubating at 25 °C for 5 min, 150 μL of 1 mM L-DOPA aqueous solution was added, followed by incubation at 25 °C for 10 min, again, before the concentration determination of DOPA quinone at 475 nm absorbance. The total volume of each reaction system was 300 μL. […] The inhibitory activity was expressed by IC50 value, which is equal to the concentration of inhibitor at 50% inhibitory rate according to the following equation:[25]1 [drawing 1] where, A is the optical density (OD475) of potassium phosphate buffer; B, C and D are the OD475 of potassium phosphate buffer with tyrosinase, with both TPs and tyrosinase, and with TPs, respectively.

[2] = system: Tyrosinase (TYR, EC1.14.18.1) from mushroom; experiment: Fluorescence quenching of tyrosinase by TPs (Stern–Volmer analysis); assay type: binding; conditions: for bimolecular quenching constant (κq): calculated by KSV/τ0, τ0 10^−8 s; for Stern–Volmer quenching constant (KSV): excited at 274 nm, pH 6.5; for binding constant (KA): static quenching equation
Method: The fluorescence spectrum of the TP-TYR complex was measured according to our previous work.[27] Briefly, 10 mM TP was titrated into 3 mL potassium phosphate buffer (pH 6.5) containing 10 units tyrosinase under continuous stirring and nitrogen exists. After 5 minutes, tyrosinase was excited at 274 nm and the emission spectrum over the range of 280 nm to 400 nm was detected through a 3 nm slit. The emission spectrum of the tyrosinase solution was also directly measured as a background.
Fluorescence quenching mechanism is usually divided into static or dynamic manner.[46] To clarify the quenching mechanism of the interaction between tyrosinase and TPs, we analyzed the fluorescence quenching data using the Stern–Volmer equation.[47]2 [drawing 2] where F0 and F are the relative fluorescence intensities before and after the addition of inhibitor, respectively; κq is the bimolecular quenching rate constant; τ0 is the fluorescence lifetime at 10^−8 s for most biological macromolecules,[48] [Q] is the concentration of inhibitor and KSV is the Stern–Volmer quenching constant. The Stern–Volmer quenching constant (KSV) determined by linear regression of a curve of F0/F versus [Q] was plotted in Fig. 2 (inset). As listed in Table 1, the KSV value of ECG with less one hydroxyl group on ring B is much higher than that of EGCG. Good linear relationships in three Stern–Volmer plots of TPs are generally the indication of a single type of quenching manner. The calculated κq values by KSV/τ0 are 0.48 × 10^12, 4.10 × 10^12 and 3.13 × 10^12 M^−1 for catechin, ECG and EGCG, respectively. […] For static quenching mechanism, the binding site number (n) and association constant (KA) can be obtained by the following equation:[49]3 [drawing 3]

[3] = system: Tyrosinase (TYR, EC1.14.18.1) from mushroom; experiment: Oximetry: oxygen utilization in oxidation of TPs by tyrosinase and of L-DOPA by the remaining tyrosinase; assay type: biochemical; conditions: for inactivation rate (k2) of tyrosinase / oxidation rate (k1): fit of oxygen utilization curve, 30 °C, pH 6.5; for partition ratio (r): molecules of inhibitor required to inactivate one molecule of tyrosinase: intercept on abscissa, ESI Fig. 3
Method: The oxygen consumption in the process of tyrosinase interacting with TPs was monitored with the reported method.[28] Briefly, 0.4 mL of 8.2 mM TP was added to 19.2 mL phosphate buffer (pH 6.5). After equilibrating at 30 °C for 5 min, 0.4 mL of 500 unit per ml tyrosinase was injected to TP solution under continuous stirring. The decrease of oxygen was monitored with the dissolved oxygen meter. In order to evaluate the remaining activity of tyrosinase, L-DOPA was added to the above mixture of tyrosinase and TP after 5 minutes if no oxygen decreasing was observed, followed by monitoring the secondary oxygen utilization in the oxidation reaction of L-DOPA catalyzed by the remaining tyrosinase. The concentration of L-DOPA was 194 μM.
To further reveal tyrosinase inhibitory mechanisms of TPs, we monitored oxygen utilization against time starting from the injecting of TPs into tyrosinase solution using oximetry. The corresponding time-dependent curves of oxygen utilization are depicted in Fig. 4A. In the initial stage, the increase of oxygen utilization for TPs further corroborates that TPs could be oxidized by tyrosinase like-as substrate manner. The time-dependent curves of oxygen utilization can be better fitted with the following equation:[28]4 [drawing 4] where, Ut is the oxygen consumption at time t; E0 is the initial amount of tyrosinase; k1 and k2 are the oxidation rate and the inactivation rate of tyrosinase, respectively. As listed in Table 2, ECG and catechin can inactivate tyrosinase with inactivation rate (k2) of 0.018 and 0.016, respectively, while the inactivation rate of EGCG is ∼4 times lower than catechin. […] Furthermore, the catecholase activities of residual tyrosinase were evaluated by the oxygen utilization of L-DOPA. […] The slope (K) of oxygen consumption curve is positive proportional to the amount of residual tyrosinase.[64] Obviously, the remaining quantity of tyrosinase for EGCG is largest, while the residual amount is least for ECG. […] In this inactivation pathway, the catechol is converted to an intermediate by deprotonation and reductive elimination along with the leaving of forming Cu(0) from catalytic center, leading to the irreversible inactivation of tyrosinase.[28] However, the oxidation of ring B on EGCG or ring G on both ECG and EGCG (the pyrogallol group) catalyzed by tyrosinase should be competitive with the natural substrate (such as L-DOPA) through the diphenolase-like catalytic pathway (as shown in Fig. 5), because the three adjacent hydroxyl groups on the pyrogallol group having larger steric hindrance and worse orientation were unfavorable to the insert of additional oxygen on the aromatic ring.[28] Tyrosinase at last can be reactivated after catalyzing the oxidation of two molecules of EGCG, accounting for the lower inhibitory activity of EGCG than ECG and catechin. […] As shown in ESI Fig. 3 ^† (the intercept on abscissa), inactivating one molecule of tyrosinase requires 14.7 molecules of ECG or 38.7 molecules of catechin, being better consistent with their inactivation rate. The lower inactivation efficiency against tyrosinase explained that catechin has weaker inhibitory activity than ECG.

[4] = diphenolase activity, L-DOPA substrate, pH 6.5, 25 °C, read-out: IC50

T1 sequence (C7FF04 1-392): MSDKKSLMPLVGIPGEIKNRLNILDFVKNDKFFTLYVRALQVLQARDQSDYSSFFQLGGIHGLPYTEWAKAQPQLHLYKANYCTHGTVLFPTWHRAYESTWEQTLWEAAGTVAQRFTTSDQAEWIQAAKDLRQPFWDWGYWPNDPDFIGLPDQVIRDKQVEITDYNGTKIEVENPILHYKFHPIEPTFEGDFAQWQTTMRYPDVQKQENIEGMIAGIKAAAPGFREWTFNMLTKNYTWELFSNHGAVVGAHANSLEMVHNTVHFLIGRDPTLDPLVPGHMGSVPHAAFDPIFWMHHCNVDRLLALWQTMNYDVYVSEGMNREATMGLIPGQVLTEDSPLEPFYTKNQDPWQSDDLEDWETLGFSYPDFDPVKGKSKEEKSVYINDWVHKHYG

Oc1cc(O)c2c(c1)OC(c1ccc(O)c(O)c1)C(O)C2 (single isomer, unassigned; (+)) [Catechin, (+)-catechin]
IC50 [1, 4]: 57.1 µM | association constant (KA) [2]: 0.04 × 10^5 | bimolecular quenching constant (κq) [2]: 4.8e+11 M⁻¹ s⁻¹ | Stern–Volmer quenching constant (KSV) [2]: 4800 M⁻¹ | binding constant (KA) [2]: 0.04 ×10^5 | inactivation rate (k2) of tyrosinase [3]: 0.016 | oxidation rate (k1) [3]: 0.063 | partition ratio (r): molecules of inhibitor required to inactivate one molecule of tyrosinase [3]: 38.7 molecules

O=C(OC1Cc2c(O)cc(O)cc2OC1c1cc(O)c(O)c(O)c1)c1cc(O)c(O)c(O)c1 (single isomer, unassigned; (-)) [EGCG, (−)-epigallocatechin-3-O-gallate]
IC50 [1, 4]: 142 µM | association constant (KA) [2]: 3.07 × 10^5 | bimolecular quenching constant (κq) [2]: 3.13e+12 M⁻¹ s⁻¹ | Stern–Volmer quenching constant (KSV) [2]: 31300 M⁻¹ | binding constant (KA) [2]: 3.07 ×10^5 | inactivation rate, times lower than catechin [3]: ~4 times | inactivation rate (k2) of tyrosinase [3]: 0.004 | oxidation rate (k1) [3]: 0.007 | slope (K) of the residual tyrosinase oxidizing L-DOPA substrate ([3]; oxygen utilization, 194 μM L-DOPA added after TP): 0.39

O=C(OC1Cc2c(O)cc(O)cc2OC1c1ccc(O)c(O)c1)c1cc(O)c(O)c(O)c1 (single isomer, unassigned; (-)) [ECG, (−)-epicatechin gallate]
IC50 [1]: 22.6 µM | tyrosinase inhibitory activity, fold stronger than that of EGCG ([1]; by IC50 values): 6 fold | association constant (KA) [2]: 0.53 × 10^5 | bimolecular quenching constant (κq) [2]: 4.1e+12 M⁻¹ s⁻¹ | Stern–Volmer quenching constant (KSV) [2]: 41000 M⁻¹ | binding constant (KA) [2]: 0.53 ×10^5 | inactivation rate (k2) of tyrosinase [3]: 0.018 | oxidation rate (k1) [3]: 0.068 | partition ratio (r): molecules of inhibitor required to inactivate one molecule of tyrosinase [3]: 14.7 molecules
